From patent US20250197865A1, “PHARMACEUTICAL COMPOSITION FOR TREATMENT OR PREVENTION OF FIBROTIC DISEASE” (KYUSHU UNIVERSITY, NATIONAL UNIVERSITY CORPORATION, priority 2022, published 2025)

How the values were obtained:
SMAD3 mRNA = test: si Smad3 transfection of myofibroblasts from carbon tetrachloride-induced fibrotic liver, SMAD3 mRNA; format: cell-based, mouse; conditions: myofibroblasts from CCl4 liver fibrosis model; versus si Ctrl; FIG. 26c
Protocol: The mRNA expression levels of P4HA3 etc. in the examples of the present specification were quantified as follows. The concentration of purified RNA was determined using a microspectrophotometer DS-11 (DeNovix), and reverse transcription to cDNA was performed using a High Capacity cDNA Reverse Transcription Kit (Applied Biosystems). Quantification of mRNA was performed according to the protocol of Luna Universal qPCR Master Mix (New England BioLabs), with DNA polymerase activation at 95° C. for 60 seconds, followed by 45 cycles of cDNA denaturation at 95° C. for 15 seconds and extension at 60° C. for 30 seconds. Analysis was performed by the AACt method using GAPDH as an internal standard. Mouse Cyp7al probe was purchased from Applied Biosystems. Primers and probes for mouse α-smooth muscle actin (α-SMA), CD68, 1α1 collagen (Col1α1), 1α2 collagen (Col1α2), 1α3 collagen (Col1α3), 6α1 collagen (Col6α1), 8α1 collagen (Co81α1), GAPDH (glyceraldehyde-3-phosphate dehydrogenase), heat shock protein 47 (Hsp47), prolyl 4-hydroxylase alphal subunit (P4HA1), prolyl 4-hydroxylase alpha2 subunit (P4HA2), and prolyl 4-hydroxylase alpha3 subunit (P4HA3) were purchased from Sigma-Aldrich.
Hepatic stellate cells, which are involved in liver fibrosis, are known to be activated by TGFβ (Fabregat, I. et al., FEBS J., 283:2219-2232 (2016)). […]

[1] = test system: mRNA expression of fibrosis-related factors (collagens, elastin) in myofibroblasts; test: siRNA treatment of myofibroblasts from carbon tetrachloride-induced fibrotic liver, fibrosis-related factor mRNA by real-time RT-PCR; format: cell-based, mouse; conditions: myofibroblasts from CCl4 liver fibrosis model; si Smad3 versus si Ctrl; P4HA3, Col1α1, Col1α2, Col3α1; FIG. 26c

si Smad3: siRNA for mouse SMAD3, SEQ ID NOs: 14 and 15; ThermoFisher Scientific catalog 4390771, Assay ID s69495 (chain 1 GGAATTTGCTGCCCTCCTATT; chain 2 TAGGAGGGCAGCAAATTCCCT; listed as DNA, chemistry not given here)
mRNA expression of SMAD3 (SMAD3 mRNA): inhibits
mRNA expression of fibrosis-related factors including P4HA3 [1]: suppressed
